# Measured values: patent US10294202B2, “Pyrrolidinones as herbicides” (FMC Corporation, priority 2013, dated 2019)
# What was measured:
# field poppy = test: Test D pre-/postemergence herbicide test; format: in vivo, Papaver rhoeas; conditions: for Plant response rating: Field Poppy, scale 0 to 100; for Plant response rating, Field Poppy: scale 0 to 100 (0 no effect, 100 complete control)
# Source text: (§1) Seeds of plant species selected from bluegrass (annual bluegrass, Poa annua), blackgrass (Alopecurus myosuroides), canarygrass (littleseed canarygrass, Phalaris minor), chickweed (common chickweed, Stellaria media), galium (catchweed bedstraw, Galium aparine), bromegrass, downy (downy bromegrass, Bromus tectorum), field poppy (Papaver rhoeas), field violet (Viola arvensis), foxtail, green (green foxtail, Setaria viridis), deadnettle (henbit deadnettle, Lamium amplexicaule), ryegrass, Italian (Italian ryegrass, Lolium multiflorum), kochia (Kochia scoparia), lambsquarters (Chenopodium album), oilseed rape (Brassica napus), pigweed (Amaranthus retroflexus), chamomile (scentless chamomile, Matricaria inodora), Russian thistle (Salsola kali), speedwell (bird's-eye speedwell, Veronica persica), barley, spring (spring barley, Hordeum vulgare), wheat, spring (spring wheat, Triticum aestivum), buckwheat, wild (wild buckwheat, Polygonum convolvulus), mustard, wild (wild mustard, Sinapis arvensis), oat, wild (wild oat, Avena fatua), radish, wild (wild radish, Raphanus raphanistrum), […]), barley, winter (winter barley, Hordeum vulgare), and wheat, winter (winter wheat, Triticum aestivum) were planted into a silt loam soil and treated preemergence with test chemicals formulated in a non-phytotoxic solvent mixture which included a surfactant. At the same time, these species were planted in pots containing Redi-Earth® planting medium (Scotts Company, 14111 Scottslawn Road, Marysville, Ohio 43041) comprising spaghnum peat moss, vermiculite, wetting agent and starter nutrients and treated with postemergence applications of the test chemicals formulated in the same manner. Plants ranged in height from 2 to 18 cm (1- to 4-leaf stage). Treated plants and controls were maintained in a controlled growth environment for 7 to 21 days after which time all species were compared to controls and visually evaluated. Plant response ratings, summarized in Table D, are based on a scale of 0 to 100 where 0 is no effect and 100 is complete control. A dash (-) response means no test result.
# pigweed = test: Test D pre-/postemergence herbicide test; format: in vivo, Amaranthus retroflexus; conditions: for Plant response rating: Postemergence, Pigweed, scale 0 to 100; for Plant response rating, Pigweed: Preemergence, scale 0 to 100 (0 no effect, 100 complete control)
# Source text: as §1
# kochia = test: Test E preemergence herbicide test; format: in vivo, Kochia scoparia; set-up: key: 0 = no effect, 100 = complete control
# Source text: (§2) Seeds of plant species selected from corn (Zea mays), soybean (Glycine max), velvetleaf (Abutilon theophrasti), lambsquarters (Chenopodium album), wild poinsettia (Euphorbia heterophylla), pigweed, palmer (palmer pigweed, Amaranthus palmeri), waterhemp (common waterhemp, Amaranthus rudis), surinam grass (Brachiaria decumbens), crabgrass, large (large crabgrass, Digitaria sanguinalis), crabgrass, Brazil (Brazilian crabgrass, Digitaria horizontalis), panicum, fall (fall panicum, Panicum dichotomiflorum), foxtail, giant (giant foxtail, Setaria faberii), foxtail, green (green foxtail, Setaria viridis), goosegrass (Eleusine indica), johnsongrass (Sorghum halepense), ragweed (common ragweed, Ambrosia elatior), barnyardgrass (Echinochloa crus-galli), sandbur (southern sandbur, Cenchrus echinatus), arrowleaf […] rhombifolia), ryegrass, Italian (Italian ryegrass, Lolium multiflorum), dayflower, VA (Virginia dayflower, Commelina virginica), field bindweed (Convolvulus arvensis), morningglory (Ipomoea coccinea), nightshade (eastern black nightshade, Solanum ptycanthum), kochia (Kochia scoparia), nutsedge, yellow (yellow nutsedge, Cyperus esculentus), cocklebur (common cocklebur, Xanthium strumarium), smartweed (ladysthumb smartweed, Polygonum Persicaria) and beggarticks (hairy beggarticks, Bidens pilosa), were planted into a silt loam soil and treated preemergence with test chemicals formulated in a non-phytotoxic solvent mixture which included a surfactant. Treated plants and controls were maintained in a greenhouse for 21 days, after which time all species were compared to controls and visually evaluated. Plant response ratings, summarized in Table E, are based on a scale of 0 to 100 where 0 is no effect and 100 is complete control. A dash (-) response means no test result.
# nightshade = test: Test E preemergence herbicide test; format: in vivo, Solanum ptycanthum; set-up: key: 0 = no effect, 100 = complete control
# Source text: as §2
# crabgrass, large = test: Test E preemergence herbicide test; format: in vivo, Digitaria sanguinalis; set-up: key: 0 = no effect, 100 = complete control
# Source text: as §2
# surinam grass = test: Test E preemergence herbicide test; format: in vivo, Brachiaria decumbens; set-up: key: 0 = no effect, 100 = complete control
# Source text: as §2
# soybean = test: Test E preemergence herbicide test; format: in vivo, Glycine max; set-up: key: 0 = no effect, 100 = complete control
# Source text: as §2
smiles,measurement,setting,value
O=C1NCC(c2ccc(F)c(F)c2)C1C(=O)Nc1ccccc1C(F)(F)F (racemic) [Compound 6],Plant response rating,"field poppy; Postemergence, 16 g ai/ha",0
same,Plant response rating,"field poppy; Postemergence, 31 g ai/ha",0
same,Plant response rating,"field poppy; Postemergence, 62 g ai/ha",20
same,Plant response rating,"field poppy; Postemergence, 125 g ai/ha",20
same,Plant response rating,"field poppy; Postemergence, 250 g ai/ha",30
same,"Plant response rating, Field Poppy","field poppy; Preemergence, 62 g ai/ha",0
same,"Plant response rating, Field Poppy","field poppy; Preemergence, 31 g ai/ha",0
same,Plant response rating,"field poppy; Preemergence, 125 g ai/ha",0
same,Plant response rating,"field poppy; Preemergence, 250 g ai/ha",100
same,Plant response rating,pigweed; 16 g ai/ha,0
same,Plant response rating,pigweed; 31 g ai/ha,10
same,Plant response rating,pigweed; 62 g ai/ha,10
same,Plant response rating,pigweed; 125 g ai/ha,20
same,Plant response rating,pigweed; 250 g ai/ha,20
same,"Plant response rating, Pigweed",pigweed; 62 g ai/ha,0
same,"Plant response rating, Pigweed",pigweed; 125 g ai/ha,0
same,"Plant response rating, Pigweed",pigweed; 16 g ai/ha,0
same,"Plant response rating, Pigweed",pigweed; 31 g ai/ha,0
same,"Plant response rating, Pigweed",pigweed; 250 g ai/ha,0
O=C1NCC(c2ccc(Cl)c(Cl)c2)C1C(=O)Nc1ccccc1F (racemic) [Compound 14],"Plant response rating, Kochia",kochia; 16 g ai/ha,0
same,"Plant response rating, Kochia",kochia; 31 g ai/ha,0
same,"Plant response rating, Kochia",kochia; 62 g ai/ha,0
same,"Plant response rating, Kochia",kochia; 125 g ai/ha,0
same,"Plant response rating, Kochia",kochia; 250 g ai/ha,0
same,"Plant response rating, Nightshade",nightshade; 16 g ai/ha,0
same,"Plant response rating, Nightshade",nightshade; 31 g ai/ha,0
same,"Plant response rating, Nightshade",nightshade; 62 g ai/ha,30
same,"Plant response rating, Nightshade",nightshade; 125 g ai/ha,50
same,"Plant response rating, Nightshade",nightshade; 250 g ai/ha,70
same,"Plant response rating, Crabgrass, Large","crabgrass, large; 16 g ai/ha",0
same,"Plant response rating, Crabgrass, Large","crabgrass, large; 62 g ai/ha",25
same,"Plant response rating, Crabgrass, Large","crabgrass, large; 125 g ai/ha",90
same,"Plant response rating, Crabgrass, Large","crabgrass, large; 250 g ai/ha",90
same,"Plant response rating, Surinam Grass",surinam grass; 16 g ai/ha,0
same,"Plant response rating, Surinam Grass",surinam grass; 31 g ai/ha,0
same,"Plant response rating, Surinam Grass",surinam grass; 62 g ai/ha,0
same,"Plant response rating, Surinam Grass",surinam grass; 125 g ai/ha,20
same,"Plant response rating, Surinam Grass",surinam grass; 250 g ai/ha,60
same,"Plant response rating, Soybean",soybean; 16 g ai/ha,0
same,"Plant response rating, Soybean",soybean; 31 g ai/ha,0
same,"Plant response rating, Soybean",soybean; 62 g ai/ha,0
same,"Plant response rating, Soybean",soybean; 125 g ai/ha,0
same,"Plant response rating, Soybean",soybean; 250 g ai/ha,0
O=C1NCC(c2ccc(F)c(C(F)(F)F)c2)C1C(=O)Nc1cccc(F)c1F (racemic) [Compound 77],"Plant response rating, Field Poppy","field poppy; Preemergence, 62 g ai/ha",90
same,"Plant response rating, Field Poppy","field poppy; Preemergence, 31 g ai/ha",75
same,Plant response rating,"field poppy; Preemergence, 125 g ai/ha",95
same,Plant response rating,"field poppy; Preemergence, 250 g ai/ha",100
same,"Plant response rating, Pigweed",pigweed; 62 g ai/ha,70
same,"Plant response rating, Pigweed",pigweed; 125 g ai/ha,80
same,"Plant response rating, Pigweed",pigweed; 31 g ai/ha,25
same,"Plant response rating, Pigweed",pigweed; 250 g ai/ha,80
O=C1NCC(c2ccc(C(F)(F)F)cc2)C1C(=O)Nc1cccc(F)c1F (racemic) [Compound 202],"Plant response rating, Kochia",kochia; 31 g ai/ha,95
same,"Plant response rating, Kochia",kochia; 62 g ai/ha,95
same,"Plant response rating, Kochia",kochia; 125 g ai/ha,95
same,"Plant response rating, Kochia",kochia; 250 g ai/ha,98
same,"Plant response rating, Nightshade",nightshade; 31 g ai/ha,0
same,"Plant response rating, Nightshade",nightshade; 62 g ai/ha,50
same,"Plant response rating, Nightshade",nightshade; 125 g ai/ha,90
same,"Plant response rating, Nightshade",nightshade; 250 g ai/ha,80
same,"Plant response rating, Crabgrass, Large","crabgrass, large; 31 g ai/ha",98
same,"Plant response rating, Crabgrass, Large","crabgrass, large; 62 g ai/ha",98
same,"Plant response rating, Crabgrass, Large","crabgrass, large; 125 g ai/ha",98
same,"Plant response rating, Crabgrass, Large","crabgrass, large; 250 g ai/ha",98
same,"Plant response rating, Surinam Grass",surinam grass; 31 g ai/ha,20
same,"Plant response rating, Surinam Grass",surinam grass; 125 g ai/ha,65
same,"Plant response rating, Surinam Grass",surinam grass; 250 g ai/ha,95
same,Plant response rating,"field poppy; Postemergence, 31 g ai/ha",0
same,Plant response rating,"field poppy; Postemergence, 62 g ai/ha",75
same,Plant response rating,"field poppy; Postemergence, 125 g ai/ha",100
same,Plant response rating,"field poppy; Postemergence, 250 g ai/ha",100
same,"Plant response rating, Field Poppy","field poppy; Preemergence, 62 g ai/ha",85
same,"Plant response rating, Field Poppy","field poppy; Preemergence, 31 g ai/ha",85
same,Plant response rating,"field poppy; Preemergence, 125 g ai/ha",90
same,Plant response rating,"field poppy; Preemergence, 250 g ai/ha",100
same,Plant response rating,pigweed; 31 g ai/ha,75
same,Plant response rating,pigweed; 62 g ai/ha,75
same,Plant response rating,pigweed; 125 g ai/ha,75
same,Plant response rating,pigweed; 250 g ai/ha,80
same,"Plant response rating, Pigweed",pigweed; 62 g ai/ha,80
same,"Plant response rating, Pigweed",pigweed; 125 g ai/ha,90
same,"Plant response rating, Pigweed",pigweed; 31 g ai/ha,75
same,"Plant response rating, Pigweed",pigweed; 250 g ai/ha,90
same,"Plant response rating, Soybean",soybean; 31 g ai/ha,0
same,"Plant response rating, Soybean",soybean; 62 g ai/ha,0
same,"Plant response rating, Soybean",soybean; 125 g ai/ha,0
same,"Plant response rating, Soybean",soybean; 250 g ai/ha,0
